Data published in patent US11591355B2 (Peloton Therapeutics, Inc., priority 2017, dated 2023).
pIC50: −log10 of the molar value. Read-outs that look alike come from different tables or passages of the source.

Columns and labels:
[1] = biological target: T1, Human CD73 (Homo sapiens, UniProt P21589); test: CD73 Enzyme Assay; assay type: biochemical; conditions: read-out: CD73 Enzyme Assay IC50
T1 construct: purchased R&D Systems; host or cells: CHO cells
T1 sequence (P21589 27-549): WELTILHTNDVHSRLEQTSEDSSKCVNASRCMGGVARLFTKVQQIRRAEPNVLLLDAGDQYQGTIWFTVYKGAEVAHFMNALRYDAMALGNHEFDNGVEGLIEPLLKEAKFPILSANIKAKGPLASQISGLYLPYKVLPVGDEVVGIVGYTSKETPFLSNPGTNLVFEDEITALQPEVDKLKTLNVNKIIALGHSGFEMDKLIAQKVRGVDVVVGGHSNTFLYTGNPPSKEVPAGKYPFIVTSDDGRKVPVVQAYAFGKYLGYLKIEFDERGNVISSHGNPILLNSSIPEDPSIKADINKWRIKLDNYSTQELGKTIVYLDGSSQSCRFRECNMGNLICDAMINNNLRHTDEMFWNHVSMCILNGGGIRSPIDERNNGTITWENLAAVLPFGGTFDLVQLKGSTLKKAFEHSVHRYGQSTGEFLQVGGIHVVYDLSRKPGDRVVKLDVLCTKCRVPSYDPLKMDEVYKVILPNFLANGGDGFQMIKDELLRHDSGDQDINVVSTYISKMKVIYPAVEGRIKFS

[2] = biological target: T2, CD73 on U138 human neuroglioma cells (Homo sapiens, UniProt P21589); test: CD73 Cell-Based Assay
T2 construct: U138 cells were obtained from ATCC and cultured in DMEM with 10% FBS; host or cells: U138 human neuroglioma cells
T2 sequence (P21589 27-549): T1 sequence (P21589 27-549)
How it was run: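 Whole U138 cells washed free of phosphate were incubated with 200 μM AMP (mixture concentration before equal-volume addition) plus compound in HEPES-buffered saline, pH 7.4, for 2 h at 37 °C, 5% CO2. Adenosine-forming activity read as inorganic phosphate released into supernatant by malachite green.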

[3] = 0.25 nM hCD73, 25 μM AMP, kinetic read at 360 nm
[4] = U138 cells, AMP substrate, 2 hours at 37° C., inorganic phosphate by malachite green

Structure (SMILES)	pIC50 [1, 3]	pIC50 [2, 4]	pIC50 [1]	pIC50 [2]
O=P(O)(O)CS(=O)(=O)C[C@H]1O[C@@H](n2ccc3c(NC4CCC(F)(F)CC4)nc(Cl)nc32)[C@H](O)[C@@H]1O [Compound 182, [(2S,3S,4R,5R)-5-[2-chloro-4-[(4,4-difluoro-cyclohexyl)amino]-pyrrolo[2,3-d]-pyrimidin-7-yl]-3,4-dihydroxy-tetrahydro-furan-2-yl]methyl-sulfonylmethylphos-phonic acid]	> 8.00	> 8.00	–	–
C[C@H](Nc1nc(Cl)nc2c1ccn2[C@@H]1O[C@H](CS(=O)(=O)CP(=O)(O)O)[C@@H](O)[C@H]1O)c1ccc(F)cc1F [Compound 183, [(2S,3S,4R,5R)-5-[2-chloro-4-[[(1S)-1-(2,4-difluorophenyl)ethyl]-amino]pyrrolo[2,3-d]-pyrimidin-7-yl]-3,4-dihydroxy-tetrahydro-furan-2-yl]methyl-sulfonylmethylphos-phonic acid]	> 8.00	> 8.00	–	–
CCOP(=O)(O)COC[C@H]1O[C@@H](n2ccc3c(NC4CCCC4)nc(Cl)nc32)[C@H](O)[C@@H]1O [Compound 184, [(2R,3S,4R,5R)-5-[2-chloro-4-(cyclopentyl-amino)pyrrolo[2,3-d]-pyrimidin-7-yl]-3,4-dihydroxy-tetrahydro-furan-2-yl]methoxy-methylethoxy-phos-phinic acid]	–	–	< 6.00	6.00 to 7.00
CN(c1nc(Cl)nc2c1ncn2[C@@H]1O[C@H](COCP(=O)(O)O)[C@@H](O)[C@H]1O)C1CCCC1 [Compound 186, [(2R,3S,4R,5R)-5-[2-chloro-6-[cyclopentyl-(methyl)amino]purin-9-yl]-3,4-dihydroxy-tetrahydrofuran-2-yl]-methoxymethylphos-phonic acid]	> 8.00	7.00 to 8.00	–	–
CC(C)(C)C(=O)OCOP(=O)(COC[C@H]1O[C@@H](n2ccc3c(NC4CCCC4)nc(Cl)nc32)[C@H](O)[C@@H]1O)OCOC(=O)C(C)(C)C [Compound 187, [[(2R,3S,4R,5R)-5-[2-chloro-4-(cyclopentyl-amino)pyrrolo[2,3-d]-pyrimidin-7-yl]-3,4-dihydroxy-tetrahydro-furan-2-yl]methoxy-methyl-(2,2-dimethyl-propanoyloxymethoxy)-phosphoryl]oxymethyl 2,2-dimethylpropanoate]	< 6.00	< 6.00	–	–
CC(C)(C)C(=O)OCOP(=O)(O)COC[C@H]1O[C@@H](n2ccc3c(NC4CCCC4)nc(Cl)nc32)[C@H](O)[C@@H]1O [Compound 188, [(2R,3S,4R,5R)-5-[2-chloro-4-(cyclopentyl-amino)pyrrolo[2,3-d]-pyrimidin-7-yl]-3,4-dihydroxy-tetrahydro-furan-2-yl]methoxy-methyl-(2,2-dimethyl-propanoyloxymethoxy)-phosphinic acid]	> 8.00	6.00 to 7.00	–	–
C[C@@H](Nc1nc(C#N)nc2c1ccn2[C@@H]1O[C@H](COCP(=O)(O)O)[C@@H](O)[C@H]1O)c1ccc(F)cc1F [Compound 189, [(2R,3S,4R,5R)-5-[2-cyano-4-[[(1R)-1-(2,4-difluorophenyl)ethyl]-amino]pyrrolo[2,3-d]-pyrimidin-7-yl]-3,4-dihydroxy-tetrahydro-furan-2-yl]methoxy-methylphosphonic acid]	> 8.00	> 8.00	–	–
O=P(O)(O)COC[C@H]1O[C@@H](n2ccc3c(N4CCCC4)nc(Cl)nc32)[C@H](O)[C@@H]1O [Compound 190, [(2R,3S,4R,5R)-5-(2-chloro-4-pyrrolidin-1-yl-pyrrolo[2,3-d]-pyrimidin-7-yl)-3,4-dihydroxy-tetrahydro-furan-2-yl]methoxy-methylphosphonic acid]	> 8.00	> 8.00	–	–
CN(c1nc(Cl)nc2c1ccn2[C@@H]1O[C@H](COCP(=O)(O)O)[C@@H](O)[C@H]1O)C1CCCC1 [Compound 192, [(2R,3S,4R,5R)-5-[2-chloro-4-[cyclopentyl-(methyl)amino]pyrrolo-[2,3-d]pyrimidin-7-yl]-3,4-dihydroxy-tetra-hydrofuran-2-yl]-methoxymethylphos-phonic acid]	> 8.00	> 8.00	–	–
CC(C)OC(=O)OCOP(=O)(O)COC[C@H]1O[C@@H](n2ccc3c(NC4CCCC4)nc(Cl)nc32)[C@H](O)[C@@H]1O [Compound 193, [(2R,3S,4R,5R)-5-[2-chloro-4-(cyclopentyl-amino)pyrrolo[2,3-d]-pyrimidin-7-yl]-3,4-dihydroxy-tetrahydro-furan-2-yl]methoxy-methyl-(isopropoxy-carbonyloxymethoxy)-phosphinic acid]	7.00 to 8.00	7.00 to 8.00	–	–
CC(C)C(=O)OCOP(=O)(O)COC[C@H]1O[C@@H](n2ccc3c(NC4CCCC4)nc(Cl)nc32)[C@H](O)[C@@H]1O [Compound 194, [(2R,3S,4R,5R)-5-[2-chloro-4-(cyclopentyl-amino)pyrrolo[2,3-d]-pyrimidin-7-yl]-3,4-dihydroxy-tetrahydro-furan-2-yl]methoxy-methyl-(2-methyl-propanoyloxymeth-oxy)phosphinic acid]	> 8.00	> 8.00	–	–
CCN(c1nc(Cl)nc2c1ccn2[C@@H]1O[C@H](COCP(=O)(O)O)[C@@H](O)[C@H]1O)C1CCCC1 [Compound 195, [(2R,3S,4R,5R)-5-[2-chloro-4-[cyclopentyl-(ethyl)amino]pyrrolo-[2,3-d]pyrimidin-7-yl]-3,4-dihydroxy-tetra-hydrofuran-2-yl]-methoxymethylphos-phonic acid]	> 8.00	> 8.00	–	–
O=P(O)(O)COC[C@H]1O[C@@H](n2ccc3c(N(CC4CC4)C4CCCC4)nc(Cl)nc32)[C@H](O)[C@@H]1O [Compound 196, [(2R,3S,4R,5R)-5-[2-chloro-4-[cyclopentyl-(cyclopropylmethyl)-amino]pyrrolo[2,3-d]-pyrimidin-7-yl]-3,4-dihydroxy-tetrahydro-furan-2-yl]methoxy-methylphosphonic acid]	> 8.00	> 8.00	–	–
C[C@@H](Nc1nc(Cl)nc2c1ccn2C1O[C@H](COCP(=O)(O)O)[C@@H](O)[C@H]1O)c1ccc(C2CC2)cc1 (stereo partly drawn) [Compound 197, [(2R,3S,4R,5R)-5-[2-chloro-4-[[(1R)-1-(4-cyclopropylphenyl)-ethyl]amino]pyrrolo-[2,3-d]pyrimidin-7-yl]-3,4-dihydroxy-tetra-hydrofuran-2-yl]-methoxymethylphos-phonic acid]	> 8.00	> 8.00	–	–
C[C@H](Nc1nc(Cl)nc2c1ccn2[C@@H]1O[C@H](COCP(=O)(O)O)[C@@H](O)[C@H]1O)c1ccc(C2CC2)cc1 [Compound 198, [(2R,3S,4R,5R)-5-[2-chloro-4-[[(1S)-1-(4-cyclopropylphenyl)-ethyl]amino]pyrrolo-[2,3-d]pyrimidin-7-yl]-3,4-dihydroxy-tetra-hydrofuran-2-yl]-methoxymethylphos-phonic acid]	> 8.00	> 8.00	–	–
Cc1cn([C@@H]2O[C@H](COCP(=O)(O)O)[C@@H](O)[C@H]2O)c2nc(Cl)nc(NC3CCCC3)c12 [Compound 199, [(2R,3S,4R,5R)-5-[2-chloro-4-(cyclopentyl-amino)-5-methyl-pyrrolo[2,3-d]-pyrimidin-7-yl]-3,4-dihydroxy-tetrahydro-furan-2-yl]methoxy-methylphosphonic acid]	< 6.00	< 6.00	–	–
Cc1cc2c(NC3CCCC3)nc(Cl)nc2n1[C@@H]1O[C@H](COCP(=O)(O)O)[C@@H](O)[C@H]1O [Compound 200, [(2R,3S,4R,5R)-5-[2-chloro-4-(cyclopentyl-amino)-6-methyl-pyrrolo[2,3-d]-pyrimidin-7-yl]-3,4-dihydroxy-tetrahydro-furan-2-yl]methoxy-methylphosphonic acid]	7.00 to 8.00	7.00 to 8.00	–	–
N#Cc1nc(N2CC3CCCC3C2)c2ccn([C@@H]3O[C@H](COCP(=O)(O)O)[C@@H](O)[C@H]3O)c2n1 (stereo partly drawn) [Compound 201, [(2R,3S,4R,5R)-5-[4-(3,3a,4,5,6,6a-hexa-hydro-1H-cyclopenta-[c]pyrrol-2-yl)-2-cyano-pyrrolo[2,3-d]-pyrimidin-7-yl]-3,4-dihydroxy-tetrahydro-furan-2-yl]methoxy-methylphosphonic acid]	> 8.00	> 8.00	–	–
COC(=O)OCOP(=O)(O)COC[C@H]1O[C@@H](n2ccc3c(NC4CCCC4)nc(Cl)nc32)[C@H](O)[C@@H]1O [Compound 202, [(2R,3S,4R,5R)-5-[2-chloro-4-(cyclopentyl-amino)pyrrolo[2,3-d]-pyrimidin-7-yl]-3,4-dihydroxy-tetrahydro-furan-2-yl]methoxy-methyl-(methoxy-carbonyloxymethoxy)-phosphinic acid]	7.00 to 8.00	7.00 to 8.00	–	–
